Data taken from patent US12285403B2, “A2-73 as a therapeutic for insomnia, anxiety and agitation” (Anavex Life Sciences Corp., priority 2016, dated 2025).

Experiments:
Type in all cases: in vivo, human
[1] = Safety, tolerability and patient retention, Phase 2a study
Source text: The safety and efficacy of A2-73 has been studied Phase 2a Study in mild-moderate Alzheimer's disease patients. […] Without being bound by any particular theory, it is believed that A2-73 activates the stress-reducing and survival protein, the Sigma-1 receptor. The data of Table 1 is from an open-label, clinical trial, performed on a group of 30 mild-to-moderate AD patients (MMSE range 16-23, 40% female) on donepezil treatment, with […] 2-73. […]

[2] = system: mild-to-moderate Alzheimer's disease patients; experiment: MMSE (Mini-Mental State Examination), Phase 2a study; settings: over 31 weeks; for MMSE scores: oral daily 10 mg to 50 mg, FIG. 1
Source text: Although the present invention calls for methods of treating insomnia, some primary sleep disorders, such as circadian rhythm disorders, advanced sleep phase disorder also termed sleep onset insomnia, mid-nocturnal insomnia, early morning insomnia, hyper insomnia, trouble staying asleep, jet lag, narcolepsy, non-24-hour sleep-wake syndrome, include insomnia as a component of the disorder. Thus, the term “insomnia” should be understood to also include the insomnia component of these disorders. • Aβ—Amyloid beta is abbreviated as Aβ. • AD—Alzheimer's disease is abbreviated as AD. • ADCS-ADL—Alzheimer's Disease Cooperative Study Activities of Daily Living Inventory is abbreviated as ADCS-ADL. • Cogstate tasks—Cogstate tasks refers to Cogstate cognitive tests (Cogstate Alzheimer's Battery) using visual and verbal stimuli to ensure assessment. These tests assess cognitive function in adults with mild cognitive impairment and clinically-diagnosed Alzheimer's disease. The test is culture-neutral and not limited by a subject or participant's level of education. A Cogstate battery comprises a number of individual tests—each designed to test a specific area of cognition. When a number of these individual tests are put together to form a test battery, a more complete picture of a person's cognitive state can be defined. • DPZ—Donepezil is abbreviated as DPZ. • EEG/ERP—EEG/ERP is a reference to ERP measured via EEG. • ERP—Event-related potential is abbreviated as ERP. • HAM-D—Hamilton Depression Rating Scale is abbreviated as HAM-D. • MCI—Mild cognitive impairment is abbreviated as MCI. • MMSE—MMSE refers to the Mini-Mental State Examination (MMSE) or Folstein test. This test is a 30-point questionnaire that is used extensively in clinical and research settings to measure cognitive impairment. • SWS—Slow-wave sleep is abbreviated as SWS. • WASO.—Waking after sleep onset is abbreviated WASO.
Efficacy data is presented through 31 week from the randomized (into different treatment regimens) open-label study with ANAVEX 2-73 oral daily dosing ranging from 10 mg to 50 mg. […]

[3] = system: mild-to-moderate Alzheimer's disease patients; experiment: EEG/ERP (P300) target detection task, Phase 2a study; settings: for False Alarms / P300 Amplitude / Task Accuracy / Reaction Time: mean ± SEM; for False Alarms: baseline 3.4 ± 1.0, healthy control 1.1 ± 0.2; for P300 Amplitude: baseline 5.99 ± 0.58, healthy control 7.36 ± 0.39; for Task Accuracy: baseline 83.8 ± 3.8, healthy control 94.1 ± 1.1; for Reaction Time: baseline 559.0 ± 24.0, healthy control 458.6 ± 11.4
Experimental: An event-related potential (ERP) is the measured brain response that is the direct result of a specific sensory, cognitive, or motor event. More formally, it is any stereotyped electrophysiological response to a stimulus. The study of the brain in this way provides a noninvasive means of evaluating brain functioning. ERPs are measured by means of electroencephalography (EEG). Particular efficacy data measurements addressed cognition and function. Cognitive measures include MMSE and Cogstate battery. Functional measures were ADCS-ADL. Supportive Biomarker Measurements include ERP (P300): fundamental measures of synaptic network performance and target engagement. ERP target detection task measures is a direct measure of attention, speed of brain processing, and simple functional performance. 2-73 Rescues Cognitive Effects on a Cellular Level on the subjects of the Phase 2a study. […] 2-73 effect on synaptic networks and effect on cognition and behavior at daily doses of 10 mg-50 mg is shown. ERP peak measures (P300) are shown. The P300 (P3) wave is an event related potential (ERP) component elicited in the process of decision making. It is considered to be an endogenous potential, as its occurrence links not to the physical attributes of a stimulus, but to a person's reaction to it. More specifically, the P300 is thought to reflect processes involved in stimulus evaluation or categorization. ERP target detection task is a direct measure of attention, speed of brain. processing, and simple behavioral performance. Psychometric measures (Cogstate) cognitive measures: Detection: processing speed (psychomotor function), Identification: reaction time (attention), One Back: working memory (cognition), One Card Learning: visual learning (visual memory), ISLT: verbal learning, ISLT-delay: verbal memory. Psychometric measures (MMSE): cognitive measures. Behavioral measures (ADCS-ADL): behavioral measures.

CN(C)CC1CCOC1(c1ccccc1)c1ccccc1.Cl (stereo not drawn) [A2-73, tetrahydro-N,N-dimethyl-2,2-diphenyl-3-furanmethanamine hydrochloride]
Adverse event: headache ([1]; 30 mg): 10% | Adverse event: mild dizziness ([1]; 30 mg): 5% | Changes in clinical labs and EKGs ([1]; 30 mg): no significant changes | Tolerability ([1]; 30 mg): well tolerated | Safety and tolerability/risk profile ([1]; 32 patients with mild-to-moderate AD, Phase 2a): favorable safety and tolerability/risk profile | MMSE scores ([2]; hydrochloride): maintained at the same level | MMSE scores ([2]; listed as ANAVEX 2-73, hydrochloride): preserves average MMSE and ADCS-ADL scores | MMSE score, ANAVEX 2-73 alone vs ANAVEX 2-73 with DPZ (donepezil) ([2]; exploratory analysis, FIG. 5): no notable difference | False Alarms ([3]; 5 Week): 1.0 ± 0.5% | P300 Amplitude ([3]; 5 Week, daily 10 mg-50 mg): 7.09 ± 0.72 μV | Task Accuracy ([3]; 5 Week): 92.6 ± 2.4% | Reaction Time ([3]; 5 Week): 492.6 ± 23.8 ms | All tested areas (ERP, Cogstate, MMSE, ADCS-ADL) vs starting baseline ([3]; 5 weeks, daily 10 mg-50 mg, FIG. 9): improvement | False Alarms ([3]; 17 Week): 1.2 ± 0.9% | P300 Amplitude ([3]; 17 Week): 6.38 ± 0.61 μV | Task Accuracy ([3]; 17 Week): 92.2 ± 3.9% | Reaction Time ([3]; 17 Week): 498.8 ± 24.8 ms | False Alarms ([3]; 31 Week): 2.6 ± 1.2% | P300 Amplitude ([3]; 31 Week): 5.93 ± 0.77 μV | Task Accuracy ([3]; 31 Week): 88.1 ± 4.4% | Reaction Time ([3]; 31 Week): 521.8 ± 28.1 ms
